Measured values: article PMC9762412 (SLAS discovery : advancing life sciences R & D, 2022)
Entries after “also recorded” stand apart in the source; their conditions may differ.

Columns and labels:
[1] = system: VTA dopamine neurons, NMDAR EPSCs; assay: Electrophysiology, NMDAR EPSCs of VTA dopamine neurons in slices; parameters: species or system mouse; settings: CRF 1 μM, VTA-DA neurons, male and female mice
[2] = system: CRF1+ neurons in the central nucleus of the amygdala (CeA); assay: Electrophysiology, mIPSCs of CRF1+ neurons in CeA slices; parameters: species or system mouse

For `CC[C@H](C)[C@H](NC(=O)[C@@H](NC(=O)[C@H](CCC(=O)O)NC(=O)[C@H](CCSC)NC(=O)[C@H](CC(C)C)NC(=O)[C@H](CCCCN)NC(=O)[C@H](CCCNC(=N)N)NC(=O)[C@H](CC(N)=O)NC(=O)[C@H](CO)NC(=O)[C@H](Cc1c[nH]cn1)NC(=O)[C@H](C)NC(=O)[C@H](CCC(N)=O)NC(=O)[C@H](CCC(N)=O)NC(=O)[C@H](C)NC(=O)[C@H](CC(C)C)NC(=O)[C@H](CCC(N)=O)NC(=O)[C@H](CCC(=O)O)NC(=O)[C@H](C)NC(=O)[C@H](CCCNC(=N)N)NC(=O)[C@H](C)NC(=O)[C@H](CCSC)NC(=O)[C@H](CCC(=O)O)NC(=O)[C@H](CC(C)C)NC(=O)[C@@H](NC(=O)[C@H](CCC(=O)O)NC(=O)[C@H](CCCNC(=N)N)NC(=O)[C@H](CC(C)C)NC(=O)[C@H](CC(C)C)NC(=O)[C@H](Cc1c[nH]cn1)NC(=O)[C@H](Cc1ccccc1)NC(=O)[C@@H](NC(=O)[C@H](CC(C)C)NC(=O)[C@H](CC(=O)O)NC(=O)[C@H](CC(C)C)NC(=O)[C@H](CO)NC(=O)[C@@H](NC(=O)[C@@H]1CCCN1C(=O)[C@@H]1CCCN1C(=O)[C@H](CCC(=O)O)NC(=O)[C@H](CCC(=O)O)NC(=O)[C@@H](N)CO)[C@@H](C)CC)[C@@H](C)O)C(C)C)[C@@H](C)CC)C(N)=O` [CRF, corticotropin releasing factor], the “Effect of CRF on NMDA receptor EPSCs” value [1] was “potentiated” and the “Change in mIPSC properties by CRF after pre-treatment” value [2] was “did not induce changes; also recorded: do not produce significant changes”.
